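Values below derive from 48-hour exposures of cells grown in 96-well plates, with endpoints linearly interpolated between the two concentrations bracketing the appropriate inhibition level. Here, GI50 denotes the concentration required for 50% inhibition of growth. TGI denotes the concentration required for complete inhibition of growth.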 Where a SMILES comes first, the peptide text is derived from it. [ ]: non-standard residue; d: D form. NMeY = CN[C@@H](Cc1ccc(O)cc1)C(=O)O; dNMeF = CN[C@H](Cc1ccccc1)C(=O)O; Sar = CNCC(=O)O

Among the test systems are NCI-H522 lung; LOX IMVI melanoma; CAKI-1 renal; HCC-2998 colon; KM12 colon; TK-10 renal; MOLT-4 leukemia; DU-145 prostate; ACHN renal; M14 melanoma.
Holding throughout (experiment): NCI anticancer screen, dose series, 48 h

In the case of `O=C1c2cc3c(cc2[C@@H]2[C@H]1c1ccc([N+](=O)[O-])cc1C(=O)N2CCCCl)OCO3`, the GI50 is less than 0.01 µM in the experiment on NCI-H522 lung; less than 0.01 µM with LOX IMVI melanoma; less than 0.01 µM in the experiment on CAKI-1 renal; 0.0164 µM in the experiment with HCC-2998 colon; less than 0.0113 µM with KM12 colon; 0.0868 µM with TK-10 renal. The GI50 was more than 100 µM in the experiment on MOLT-4 leukemia, less than 0.01 µM in the experiment on DU-145 prostate, less than 0.01 µM with ACHN renal and less than 0.01 µM in the experiment on M14 melanoma. In addition, the TGI in the experiment with NCI-H522 lung is 9.64 µM; in the experiment with LOX IMVI melanoma, less than 0.01 µM; in the experiment on CAKI-1 renal, less than 0.01 µM; in the experiment on HCC-2998 colon it was 0.568 µM; in the experiment on KM12 colon, 2.05 µM; in the experiment on MOLT-4 leukemia, more than 100 µM. Besides, the TGI in the experiment with ACHN renal and in the experiment with M14 melanoma was less than 0.01 µM in each case.
As for `O=C(O)CCCSc1nc2ccccc2s1`, the TGI in the experiment on NCI-H522 lung, with LOX IMVI melanoma, in the experiment with CAKI-1 renal, in the experiment on HCC-2998 colon, in the experiment with KM12 colon and in the experiment with TK-10 renal was more than 100 µM throughout. The TGI in the experiment with MOLT-4 leukemia, in the experiment on DU-145 prostate, in the experiment with ACHN renal and with M14 melanoma was more than 100 µM in each case.
Turning to `O=C(NC(=S)NNC(=S)NNc1ccccc1)c1ccccc1`, the GI50 with NCI-H522 lung was 0.489 µM; with LOX IMVI melanoma it was 7.22 µM; in the experiment on CAKI-1 renal it was 4.75 µM; with HCC-2998 colon, 8.53 µM; with KM12 colon it was 7.09 µM; in the experiment with TK-10 renal, 35.4 µM. Besides, the GI50 is 4.81 µM in the experiment with MOLT-4 leukemia, 44.1 µM with DU-145 prostate, 10.1 µM in the experiment with ACHN renal and 7.45 µM in the experiment with M14 melanoma. The TGI is 3.42 µM in the experiment on NCI-H522 lung; more than 100 µM in the experiment with LOX IMVI melanoma; more than 100 µM in the experiment on CAKI-1 renal; more than 100 µM in the experiment with HCC-2998 colon; more than 100 µM in the experiment with KM12 colon; more than 100 µM in the experiment on TK-10 renal. Besides, the TGI was 49.9 µM in the experiment on MOLT-4 leukemia, more than 100 µM in the experiment with DU-145 prostate, more than 100 µM in the experiment on ACHN renal and 55.6 µM with M14 melanoma.
As to `CCOC(=O)Cn1c(C)c(/C=N/NC(=O)c2cc3c(ccc4ccccc43)o2)c2ccccc21`, the GI50 in the experiment with NCI-H522 lung is 0.399 µM; with LOX IMVI melanoma, 0.537 µM; with CAKI-1 renal, 0.575 µM; in the experiment on HCC-2998 colon it was 0.609 µM; in the experiment with KM12 colon it was 0.306 µM; in the experiment on TK-10 renal it was 1.26 µM. The GI50 in the experiment with MOLT-4 leukemia is 0.96 µM; in the experiment on DU-145 prostate it was 0.411 µM; with ACHN renal, 0.926 µM; in the experiment on M14 melanoma, 0.307 µM. Moreover, the TGI is 6.93 µM in the experiment on NCI-H522 lung; 2.78 µM with LOX IMVI melanoma; 2.37 µM in the experiment on CAKI-1 renal; 2.84 µM in the experiment on HCC-2998 colon; 1.52 µM in the experiment on KM12 colon; 3.92 µM in the experiment on TK-10 renal. In addition, the TGI is more than 30.1 µM in the experiment with MOLT-4 leukemia, 2.93 µM in the experiment with DU-145 prostate, 3.21 µM with ACHN renal and 4.35 µM in the experiment on M14 melanoma.
With `CC[C@H](C)[C@@H]1NC(=O)[C@H](Cc2ccc(O)cc2)N(C)C(=O)[C@H](Cc2ccccc2)NC(=O)CN(C)C(=O)[C@@H]2CCCN2C(=O)[C@@H](Cc2ccccc2)N(C)C(=O)[C@H](CC(C)C)NC1=O` (cyclo(F[NMeY]IL[dNMeF]P[Sar])), the GI50 with NCI-H522 lung is 0.287 µM; in the experiment on LOX IMVI melanoma it was 0.197 µM; in the experiment with CAKI-1 renal, 0.805 µM; in the experiment with HCC-2998 colon it was 0.39 µM; with KM12 colon, 0.271 µM; in the experiment on TK-10 renal it was 1.22 µM. Further, the GI50 in the experiment with MOLT-4 leukemia is 0.314 µM; in the experiment on DU-145 prostate, 0.205 µM; in the experiment with ACHN renal it was 2.34 µM; in the experiment on M14 melanoma it was 0.371 µM. Further, the TGI in the experiment on NCI-H522 lung was determined as 3.95 µM; in the experiment on LOX IMVI melanoma it was 1.89 µM; in the experiment on CAKI-1 renal, 11.3 µM; with HCC-2998 colon, 5.01 µM; with KM12 colon, 5.48 µM; in the experiment on TK-10 renal, 9.65 µM. Moreover, the TGI in the experiment on MOLT-4 leukemia was 10.6 µM; in the experiment on DU-145 prostate it was 10.9 µM; in the experiment with ACHN renal, 11.6 µM; in the experiment with M14 melanoma, 2.58 µM.
Regarding `COc1cccc(-n2ncc3c(N/N=C/c4ccc(S(C)(=O)=O)cc4)ncnc32)c1`, the GI50 is 6.78 µM in the experiment with NCI-H522 lung; 2.34 µM with LOX IMVI melanoma; 4.81 µM in the experiment on CAKI-1 renal; 12.4 µM in the experiment on HCC-2998 colon; 6.29 µM in the experiment with KM12 colon; 8.4 µM with TK-10 renal. Moreover, the GI50 with MOLT-4 leukemia is more than 25 µM; in the experiment with DU-145 prostate, 16.4 µM; with ACHN renal it was 6.27 µM; with M14 melanoma, 5.74 µM. The TGI is 20.1 µM with NCI-H522 lung; more than 25 µM in the experiment with LOX IMVI melanoma; more than 25 µM with CAKI-1 renal; more than 25 µM in the experiment with HCC-2998 colon; more than 25 µM in the experiment on KM12 colon; more than 23.3 µM in the experiment with TK-10 renal. Besides, the TGI with MOLT-4 leukemia, with DU-145 prostate, with ACHN renal and with M14 melanoma was more than 25 µM each time.
As to `C[C@]12CCC3c4ccc(O)cc4CCC3C1Cc1ccc(O)cc12` (some centres not stated), the GI50 is 3.5 µM in the experiment with NCI-H522 lung; 6.53 µM in the experiment with LOX IMVI melanoma; 10.8 µM in the experiment on CAKI-1 renal; 5.44 µM with HCC-2998 colon; 3.4 µM in the experiment on KM12 colon; 13.6 µM with TK-10 renal. The figures for the GI50 in the experiment with DU-145 prostate, in the experiment on ACHN renal and with M14 melanoma were 11.5 µM, 10.4 µM and 3.8 µM, respectively. Besides, the TGI in the experiment on NCI-H522 lung was 12.8 µM; in the experiment on LOX IMVI melanoma, 21.3 µM; in the experiment with CAKI-1 renal it was 45.6 µM; in the experiment with HCC-2998 colon, 18.4 µM; with KM12 colon, 20.6 µM; in the experiment with TK-10 renal, 40.2 µM. The TGI in the experiment on MOLT-4 leukemia is 0.478 µM; in the experiment with DU-145 prostate it was 28.5 µM; in the experiment with ACHN renal, 22.3 µM; in the experiment on M14 melanoma, 13.6 µM.
